Tests used:
Type in all cases: physicochemical
[1] = Half life in phosphate buffer at pH 7.8 at room temperature under sunlight
[2] = Half life in phosphate buffer at pH 7 under dark condition
[3] = Half life in phosphate buffer at pH 6.2 under dark condition
[4] = Half life in water solution at 502.5 mg/l initial concentration under dark condition
[5] = Half life in water solution at 626.5 mg/l initial concentration under dark condition
[6] = Half life in water solution at 70 degC under dark condition
[7] = Half life under incandescent lamp light at room temperature
[8] = Half life in phosphate buffer at pH 6.2 at room temperature under sunlight
[9] = Half life in phosphate buffer at pH 7 at room temperature under sunlight
[10] = Half life in water solution at 54 degC under dark condition
[11] = Half life in phosphate buffer at pH 5.8 under dark condition
[12] = Half life under dark condition at room temperature
[13] = Half life in water solution at 28 degC under dark condition
[14] = Half life under sunlight at room temperature
[15] = Half life under high-pressure mercury lamp light at room temperature
[16] = Half life in phosphate buffer at pH 5.8 at room temperature under sunlight
[17] = Half life in water solution at 248.5 mg/l initial concentration under dark condition
[18] = Half life in water solution at 37 degC under dark condition
[19] = Half life in phosphate buffer at pH 7.8 under dark condition
[20] = Half life in phosphate buffer at pH 7.4 under dark condition
[21] = Half life in phosphate buffer at pH 6.6 under dark condition
[22] = Half life in phosphate buffer at pH 6.6 at room temperature under sunlight
[23] = Half life in water solution at 121.5 mg/l initial concentration under dark condition
[24] = Half life in phosphate buffer at pH 7.4 at room temperature under sunlight
[25] = Half life in water solution at 375 mg/l initial concentration under dark condition
[26] = Half life under fluorescent lamp light at room temperature

For `O=C(c1cc(Cl)c(Cl)[nH]1)c1c(O)cccc1O` [PYOLUTEORIN], the half-life [1] was 0.42 days, the half-life [2] was 54.1 days and the half-life [3] was 42 days. For the same compound, the half-life at 502.5 mg/l [4] was 44.4 days, the half-life at 626.5 mg/l [5] was 51.7 days and the half-life [6] was 18.8 days. It also gave a half-life [7] of 23.5 days, a half-life [8] of 1.29 days and a half-life [9] of 0.69 days. For the same compound, the half-life [10] was 22 days, the half-life [11] was 34.8 days and the half-life [12] was 24.9 days. It also gave a half-life [13] of 30 days, a half-life [14] of 3.5 days and a half-life [15] of 3.1 days. The half-life [16] was 1.77 days, the half-life at 248.5 mg/l [17] was 31.1 days and the half-life [18] was 26.5 days. For the same compound, the half-life [19] was 23.9 days, the half-life [20] was 32.8 days and the half-life [21] was 50.2 days. It also gave a half-life [22] of 0.92 days, a half-life at 121.5 mg/l [23] of 26.5 days and a half-life [24] of 0.58 days. It also gave a half-life at 375 mg/l [25] of 37.7 days and a half-life [26] of 23.2 days.

From ChEMBL document CHEMBL3044691, “The stability and degradation of a new biological pesticide, pyoluteorin” (Pest Manag Sci, 2010)
